Tests used:
Assay type in all cases: cell-based
[1] = test system: K-562; test: SRB colorimetric cell growth inhibition assay, K-562; details: Homo sapiens, K562, K-562; for GI50: GI=growth inhibition, read-out: GI50 K-562; for CC50: LC=cell killing (cytotoxic effect), read-out: LC50 K-562; for IC (TGI): TGI=total growth inhibition (cytostatic effect), read-out: TGI K-562
Outline: (§1)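 Cancer cells grown in vitro were continuously treated with compound. Cell mass was then determined by SRB staining and expressed as growth inhibition.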

[2] = test system: A-549; test: SRB colorimetric cell growth inhibition assay, A-549; details: Homo sapiens, A549, A-549; for GI50: GI=growth inhibition, read-out: GI50 A-549; for CC50: LC=cell killing (cytotoxic effect), read-out: LC50 A-549; for IC (TGI): TGI=total growth inhibition (cytostatic effect), read-out: TGI A-549
Outline: as §1

[3] = test system: SK-MEL-28; test: SRB colorimetric cell growth inhibition assay, SK-MEL-28; details: Homo sapiens, SK-MEL-28, MEL-28; for GI50: GI=growth inhibition, read-out: GI50 MEL-28; for CC50: LC=cell killing (cytotoxic effect), read-out: LC50 MEL-28; for IC (TGI): TGI=total growth inhibition (cytostatic effect), read-out: TGI MEL-28
Outline: as §1

[4] = test system: HT-29; test: SRB colorimetric cell growth inhibition assay, HT-29; details: Homo sapiens, HT-29, HT-29; for GI50: GI=growth inhibition, read-out: GI50 HT-29; for CC50: LC=cell killing (cytotoxic effect), read-out: LC50 HT-29; for IC (TGI): TGI=total growth inhibition (cytostatic effect), read-out: TGI HT-29
Outline: as §1

[5] = test system: LoVo; test: SRB colorimetric cell growth inhibition assay, LoVo; details: Homo sapiens, LoVo; for GI50: GI=growth inhibition, read-out: GI50 LOVO; for CC50: LC=cell killing (cytotoxic effect), read-out: LC50 LOVO; for IC (TGI): TGI=total growth inhibition (cytostatic effect), read-out: TGI LOVO
Outline: as §1

[6] = test system: LoVo-Dox; test: SRB colorimetric cell growth inhibition assay, LoVo-Dox (MDR); details: Homo sapiens, LOVO-DOX; for GI50: GI=growth inhibition, read-out: GI50 LOVO-DOX; for CC50: LC=cell killing (cytotoxic effect), read-out: LC50 LOVO-DOX; for IC (TGI): TGI=total growth inhibition (cytostatic effect), read-out: TGI LOVO-DOX
Outline: as §1

[7] = test system: DU-145; test: SRB colorimetric cell growth inhibition assay, DU-145; details: Homo sapiens, DU-145, DU-145; for GI50: GI=growth inhibition, read-out: GI50 DU-145; for CC50: LC=cell killing (cytotoxic effect), read-out: LC50 DU-145; for IC (TGI): TGI=total growth inhibition (cytostatic effect), read-out: TGI DU-145
Outline: as §1

[8] = test system: LNCaP; test: SRB colorimetric cell growth inhibition assay, LNCaP; details: Homo sapiens, LNCaP, LN-caP; for GI50: GI=growth inhibition, read-out: GI50 LN-caP; for CC50: LC=cell killing (cytotoxic effect), read-out: LC50 LN-caP; for IC (TGI): TGI=total growth inhibition (cytostatic effect), read-out: TGI LN-caP
Outline: as §1

[9] = test system: SK-BR-3; test: SRB colorimetric cell growth inhibition assay, SK-BR-3; details: Homo sapiens, SK-BR-3, SK-BR-3; for GI50: GI=growth inhibition, read-out: GI50 SK-BR-3; for CC50: LC=cell killing (cytotoxic effect), read-out: LC50 SK-BR-3; for IC (TGI): TGI=total growth inhibition (cytostatic effect), read-out: TGI SK-BR-3
Outline: as §1

[10] = test system: IGROV; test: SRB colorimetric cell growth inhibition assay, IGROV; details: Homo sapiens, IGROV; for GI50: GI=growth inhibition, read-out: GI50 IGROV; for CC50: LC=cell killing (cytotoxic effect), read-out: LC50 IGROV; for IC (TGI): TGI=total growth inhibition (cytostatic effect), read-out: TGI IGROV
Outline: as §1

[11] = test system: IGROV-ET; test: SRB colorimetric cell growth inhibition assay, IGROV-ET (ET-743 resistant); details: Homo sapiens, IGROV-ET; for GI50: GI=growth inhibition, read-out: GI50 IGROV-ET; for CC50: LC=cell killing (cytotoxic effect), read-out: LC50 IGROV-ET; for IC (TGI): TGI=total growth inhibition (cytostatic effect), read-out: TGI IGROV-ET
Outline: as §1

[12] = test system: PANC-1; test: SRB colorimetric cell growth inhibition assay, PANC-1; details: Homo sapiens, PANC-1, PANC-1; for GI50: GI=growth inhibition, read-out: GI50 PANC-1; for CC50: LC=cell killing (cytotoxic effect), read-out: LC50 PANC-1; for IC (TGI): TGI=total growth inhibition (cytostatic effect), read-out: TGI PANC-1
Outline: as §1

[13] = test system: SKOV-3; test: SRB colorimetric cell growth inhibition assay, SKOV-3; details: Homo sapiens; for GI50: SK-OV-3, SKOV-3, GI=growth inhibition, read-out: GI50 SKOV-3; for CC50 / IC (TGI): SK-OV-3, SKOV-3; for CC50: LC=cell killing (cytotoxic effect), read-out: LC50 SKOV-3; for IC (TGI): TGI=total growth inhibition (cytostatic effect), read-out: TGI SKOV-3
Outline: (§2)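 SRB colorimetric readout of cell growth/viability in 96-well format. Means ± SD from triplicate wells; GI (growth inhibition), TGI (total growth inhibition, cytostatic) and LC (cell killing, cytotoxic) parameters derived.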

[14] = SRB colorimetric cell growth inhibition assay, H-MEC-1; details: human, H-MEC-1 cells, H-MEC-1; LC=cell killing (cytotoxic effect); read-out: LC50 H-MEC-1
Outline: as §2

[15] = test system: H-MEC-1; test: as above; details: Homo sapiens, HMEC-1, H-MEC-1; for GI50: GI=growth inhibition; for IC (TGI): TGI=total growth inhibition (cytostatic effect), read-out: TGI H-MEC-1
Outline: as §2

COc1cc2c(cc1OC)-c1c(-c3ccc(OC(=O)[C@H](C)N)c(OC)c3)c3c4cc(OC)c(OC(=O)[C@H](C)N)cc4oc(=O)c3n1CC2 [Compound 63]
GI50 [1]: 2.9 µM
CC50 [1]: 15.2 µM
IC (TGI) [1]: 6.75 µM
GI50 [2]: 2.84 µM
CC50 [2]: 10.9 µM
IC (TGI) [2]: 5.57 µM
GI50 [3]: 2.34 µM
CC50 [3]: 10.1 µM
IC (TGI) [3]: 4.87 µM
GI50 [4]: 2.92 µM
CC50 [4]: 11.1 µM
IC (TGI) [4]: 5.7 µM
GI50 [5]: 1.46 µM
CC50 [5]: 9.11 µM
IC (TGI) [5]: 3.68 µM
GI50 [6]: 0.909 µM
CC50 [6]: 9.85 µM
IC (TGI) [6]: 2.95 µM
GI50 [7]: 2.2 µM
CC50 [7]: 11.7 µM
IC (TGI) [7]: 5.08 µM
GI50 [8]: 1.13 µM
CC50 [8]: 9.61 µM
IC (TGI) [8]: 3.47 µM
GI50 [9]: 1.57 µM
CC50 [9]: 14.7 µM
IC (TGI) [9]: 4.8 µM
GI50 [10]: 0.975 µM
CC50 [10]: 14.6 µM
IC (TGI) [10]: 3.86 µM
GI50 [11]: 0.64 µM
CC50 [11]: 15.2 µM
IC (TGI) [11]: 2.86 µM
GI50 [12]: 1.93 µM
CC50 [12]: 13.2 µM
IC (TGI) [12]: 5.05 µM
GI50 [13]: 3.06 µM
CC50 [13]: 11.1 µM
IC (TGI) [13]: 5.84 µM
CC50 [14]: 10.1 µM
GI50 [15]: 2.72 µM
IC (TGI) [15]: 5.25 µM

COc1cc(-c2c3n(c4c(=O)oc5cc(OC(=O)[C@@H](N)COCc6ccccc6)c(OC)cc5c24)CCc2c-3cc(OC)c(OC)c2OC(=O)[C@@H](N)COCc2ccccc2)ccc1OC(=O)[C@@H](N)COCc1ccccc1 [Compound 66]
GI50 [1]: 0.982 µM
CC50 [1]: 7.12 µM
IC (TGI) [1]: 2.8 µM
GI50 [2]: 1.86 µM
CC50 [2]: 6.43 µM
IC (TGI) [2]: 3.46 µM
GI50 [3]: 1.42 µM
CC50 [3]: 4.55 µM
IC (TGI) [3]: 2.55 µM
GI50 [4]: 2.77 µM
CC50 [4]: 7.12 µM
IC (TGI) [4]: 6.77 µM
GI50 [5]: 2.19 µM
CC50 [5]: 7.12 µM
IC (TGI) [5]: 7.12 µM
GI50 [6]: 1.91 µM
CC50 [6]: 7.12 µM
IC (TGI) [6]: 5.56 µM
GI50 [7]: 1.73 µM
CC50 [7]: 7.12 µM
IC (TGI) [7]: 3.65 µM
GI50 [8]: 0.89 µM
CC50 [8]: 4.03 µM
IC (TGI) [8]: 1.89 µM
GI50 [9]: 0.434 µM
CC50 [9]: 7.12 µM
IC (TGI) [9]: 1.82 µM
GI50 [10]: 1.35 µM
CC50 [10]: 6.75 µM
IC (TGI) [10]: 3.02 µM
GI50 [11]: 1.22 µM
CC50 [11]: 6.87 µM
IC (TGI) [11]: 2.9 µM
GI50 [12]: 1.95 µM
CC50 [12]: 7.12 µM
IC (TGI) [12]: 7.12 µM
GI50 [13]: 2.85 µM
CC50 [13]: 7.12 µM
IC (TGI) [13]: 6.28 µM
CC50 [14]: 4.93 µM
GI50 [15]: 1.52 µM
IC (TGI) [15]: 2.73 µM

COc1cc2ccn3c(c(-c4ccc(OC(=O)[C@H](C)NC(=O)OC(C)(C)C)c(OC)c4)c4c5cc(OC)c(OC(=O)[C@H](C)NC(=O)OC(C)(C)C)cc5oc(=O)c43)c2cc1OC [Compound 77]
GI50 [1]: 2.13 µM
CC50 [1]: 11.7 µM
IC (TGI) [1]: 6.15 µM
GI50 [2]: 6.69 µM
CC50 [2]: 11.7 µM
IC (TGI) [2]: 11.7 µM
GI50 [3]: 3.29 µM
CC50 [3]: 11.7 µM
IC (TGI) [3]: 10.1 µM
GI50 [4]: 11.7 µM
CC50 [4]: 11.7 µM
IC (TGI) [4]: 11.7 µM
GI50 [5]: 11.7 µM
CC50 [5]: 11.7 µM
IC (TGI) [5]: 11.7 µM
GI50 [6]: 10.2 µM
CC50 [6]: 11.7 µM
IC (TGI) [6]: 11.7 µM
GI50 [7]: 0.8 µM
CC50 [7]: 11.7 µM
IC (TGI) [7]: 3.96 µM
GI50 [8]: 7.51 µM
CC50 [8]: 11.7 µM
IC (TGI) [8]: 11.7 µM
GI50 [9]: 3.53 µM
CC50 [9]: 11.7 µM
IC (TGI) [9]: 11.7 µM
GI50 [10]: 5.92 µM
CC50 [10]: 11.7 µM
IC (TGI) [10]: 8.84 µM
GI50 [11]: 0.258 µM
CC50 [11]: 11.7 µM
IC (TGI) [11]: 1.17 µM
GI50 [12]: 4.46 µM
CC50 [12]: 11.7 µM
IC (TGI) [12]: 11.7 µM
GI50 [13]: 7.52 µM
CC50 [13]: 11.7 µM
IC (TGI) [13]: 11.7 µM
CC50 [14]: 11.7 µM
GI50 [15]: 2.71 µM
IC (TGI) [15]: 11.7 µM

COc1cc2c(cc1OC)-c1c(-c3ccc(OC(=O)[C@H](Cc4ccccc4)NC(=O)OC(C)(C)C)c(OC)c3)c3c4cc(OC)c(OC(=O)[C@H](Cc5ccccc5)NC(=O)OC(C)(C)C)cc4oc(=O)c3n1CC2 [Compound 84]
GI50 [1]: 0.731 µM
CC50 [1]: 9.9 µM
IC (TGI) [1]: 3.3 µM
GI50 [2]: 2.66 µM
CC50 [2]: 9.03 µM
IC (TGI) [2]: 4.91 µM
GI50 [3]: 2.07 µM
CC50 [3]: 7.21 µM
IC (TGI) [3]: 3.86 µM
GI50 [4]: 2.34 µM
CC50 [4]: 9.9 µM
IC (TGI) [4]: 9.9 µM
GI50 [5]: 4.48 µM
CC50 [5]: 9.9 µM
IC (TGI) [5]: 9.9 µM
GI50 [6]: 9.9 µM
CC50 [6]: 9.9 µM
IC (TGI) [6]: 9.9 µM
GI50 [7]: 3.41 µM
CC50 [7]: 9.9 µM
IC (TGI) [7]: 8.36 µM
GI50 [8]: 0.71 µM
CC50 [8]: 5.21 µM
IC (TGI) [8]: 2.01 µM
GI50 [9]: 0.46 µM
CC50 [9]: 9.9 µM
IC (TGI) [9]: 0.95 µM
GI50 [10]: 2.41 µM
CC50 [10]: 9.9 µM
IC (TGI) [10]: 6.28 µM
GI50 [11]: 4.26 µM
CC50 [11]: 9.9 µM
IC (TGI) [11]: 8.25 µM
GI50 [12]: 0.501 µM
CC50 [12]: 9.9 µM
IC (TGI) [12]: 5.47 µM
GI50 [13]: 4.58 µM
CC50 [13]: 9.9 µM
IC (TGI) [13]: 9.9 µM
CC50 [14]: 5.96 µM
GI50 [15]: 0.682 µM
IC (TGI) [15]: 1.86 µM

Source: patent publication US7396837B2, “Antitumoral analogs of lamellarins” (Pharma Mar, S.A.U., priority 2002, dated 2008)
